Patent US20240018121A1, “NOVEL HETEROAROMATIC COMPOUNDS EXHIBITING ANTIFUNGAL ACTIVITY AND THEIR METHOD OF USE” (FOX CHASE CHEMCIAL DIVERSITY CENTER, INC., priority 2020, published 2024)
≈ marks a conversion by molar mass, not a printed value. Where a name gives a salt, the structure may show the parent alone. Read-outs that look alike come from different tables or passages of the source.

Tests used:
Type in all cases: cell-based
[1] = system: Aspergillus fumigatus T33439 (ATCC MYA-3626); experiment: Fungal MIC Protocol, Aspergillus fumigatus; settings: Aspergillus fumigatus, read-out: MIC Aspergillus fumigatus 3626
Method in brief: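 Aspergillus fumigatus was grown on Potato Dextrose Agar at 35° C. for 3-5 days, and spores were collected with PBS pH 7.4+0.1% Tween-20 plus glass beads. Spores were diluted in RPMI/MOPS to OD530 0.002 (about 2×10^4 cfu/mL). 50 ul was added to 50 μl of serially diluted compound in round bottom 96-well plates, run in duplicate, and incubated at 35° C. for 48 hours.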

[2] = system: Aspergillus flavus AFL1 (ATCC MYA-3631); experiment: Fungal MIC Protocol, Aspergillus flavus; settings: Aspergillus flavus, read-out: MIC Aspergillus flavus 3631
Method in brief: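 Aspergillus flavus spores were grown on Potato Dextrose Agar at 35° C. for 3-5 days, harvested in PBS pH 7.4+0.1% Tween-20 with glass beads, and diluted in RPMI/MOPS to an OD530 of 0.002 (about 2×10^4 cfu/mL). 50 ul of spores were combined with 50 μl of serially diluted compound in 96-well round bottom plates and incubated at 35° C. for 48 hours.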

[3] = system: Mucor circinelloides 1463(62) (ATCC 26759); experiment: Fungal MIC Protocol, Mucor circinelloides (MIC-50); settings: Mucor circinelloides, read-out: MIC-50 Mucorales circinelloides 26579
Method in brief: (§1)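 Harvested spores, adjusted by OD530 to about 2×10^4 cfu/mL in RPMI/MOPS pH 7.0, are mixed with ten duplicate serial dilutions of compound. Incubation runs 48 h at 35° C before visual scoring of the lowest concentration inhibiting growth >50%.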

[4] = system: Fusarium solani (ATCC 58877); experiment: Fungal MIC Protocol, Fusarium solani; settings: Fusarium solani, read-out: MIC Fusarium solani 58877
Method in brief: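 Fusarium solani spores were grown on Potato Dextrose Agar in tissue culture flasks at 35° C. for 3-5 days, harvested with PBS pH 7.4+0.1% Tween-20 and glass beads, and diluted in RPMI/MOPS to an OD530 of 0.005 (about 2×10^4 cfu/mL). Equal 50 ul volumes of spores and serially diluted compound were combined in 96-well round bottom plates and incubated 48 hours at 35° C.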

[5] = system: Mucor ramosissimus 057718 (ATCC 90286); experiment: Fungal MIC Protocol, Mucor ramosissimus (MIC-50); settings: Mucor ramosissimus, read-out: MIC-50 Mucorales ramosissimus 90286
Method in brief: as §1

Candida albicans GDH2346 = experiment: Candida Minimal Inhibitory Concentration (MIC); settings: Candida albicans, read-out: MIC-50 Candida albicans GDH2346
Procedure: Candida Minimal Inhibitory Concentration (MIC): RPMI/MOPS media is prepared by dissolving 8.4 g RPMI 1640, 34.52 g MOPS buffer and 2 g glucose in 900 mL water. The pH is adjusted to 7.0 with NaOH. The total volume is brought to 1 L and the resulting solution is filter sterilized. The Candida stock is streaked on a Yeast extract Peptone Dextrose (YPD) agar plate and grown at 35° C. for isolation of single colonies. Compounds of the disclosure are diluted to 200 μg/mL in RPMI/MOPS (4.8 ul of 10 mg/mL DMSO stock in 240 ul media). Ten (10) 1:2 serial dilutions are prepared in RPMI/MOPS in a 96-well round bottom plate. Fifty (50) μl of compound dilutions are transferred in duplicate to a sterile tissue culture-treated 96-well flat-bottom, black-sided polypropylene plate. A single colony of Candida from the YPD plate is re-suspended in 5 mL phosphate buffered saline (BS) and optical density (OD) at 600 nm is measured. The suspension is adjusted to OD=1.0 and a 1:1000 dilution is prepared in RPMI/MOPS. Fifty (50) ul aliquots of the diluted yeast are added to the plates containing 50 μL of compound to all wells except 12E-H. Control wells include: 12 A-D cells, no compound and 12 E-H no cells, no compound. The plates are mixed gently by hand and placed in Ziplok bags in a 35° C. incubator. The OD600 is measured at 24 and 48 hours.

[6] = system: Fusarium falciforme FS1 (ATCC MYA-3636); experiment: Fungal MIC Protocol, Fusarium falciforme; settings: Fusarium falciforme, read-out: MIC Fusarium falciforme 3636
Method in brief: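 Fusarium falciforme spores were raised on Potato Dextrose Agar at 35° C. for 3-5 days, collected in PBS pH 7.4+0.1% Tween-20 with glass beads, and diluted in RPMI/MOPS pH 7.0 to OD530 0.005 (about 2×10^4 cfu/mL). 50 ul spores were added to 50 μl duplicate serial compound dilutions in round bottom 96-well plates and incubated at 35° C. for 48 hours.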

[7] = 100% growth inhibition at 48 hours
[8] = ATCC26759, 50% growth inhibition at 48 hours
[9] = ATCC58877, 100% growth inhibition at 48 hours
[10] = ATCC90286, 50% growth inhibition at 48 hours
[11] = GDH2346, 50% growth inhibition at 48 hours

SMILES	MIC [1, 7] [µg/mL]	MIC [2, 7] [µg/mL]	MIC50 [3, 8] [µg/mL]	MIC [4, 9] [µg/mL]	MIC50 [5, 10] [µg/mL]	MIC50 (Candida albicans GDH2346; [11]) [µg/mL]	MIC [6, 7] [µg/mL]	MIC ([1]; 48 h) [µg/mL]	MIC ([2]; 48 h) [µg/mL]	MIC50 ([3]; ATCC26759, 48 h) [µg/mL]	MIC ([4]; ATCC58877, 48 h) [µg/mL]	MIC50 ([5]; ATCC90286, 48 h) [µg/mL]	MIC50 (Candida albicans GDH2346; GDH2346, 48 h) [µg/mL]	MIC ([6]; 48 h) [µg/mL]
CC(C)n1c(-c2ccc(C3=CCN(C(=N)N)CC3)cc2F)nnc1-c1ccc(C2=CCN(C(=N)N)CC2)cc1F [Example 13, 4,4-(4,4-(4-Isopropyl-4H-1,2,4-triazole-3,5-diyl)bis(3-fluoro-4,1-phenylene))bis(5,6-dihydropyridine-1(2H)-carboximidamide)]	< 0.1	0.2 (≈ 0.367 µM)	0.39 (≈ 0.715 µM)	6.25 (≈ 11.5 µM)	1.56 (≈ 2.86 µM)	0.2 (≈ 0.367 µM)	0.78 (≈ 1.43 µM)	–	–	–	–	–	–	–
Cc1cc(C2=CCN(C(=N)N)CC2)ccc1-n1nnc(-c2ccc(C3=CCN(C(=N)N)CC3)cc2)c1C [Example 32, 4-(4-(1-(4-(1-Carbamimidoyl-1,2,3,6-tetrahydropyridin-4-yl)-2-methylphenyl)-5-methyl-1H-1,2,3-triazol-4-yl)phenyl)-5,6-dihydropyridine-1(2H)-carboximidamide]	0.78 (≈ 1.57 µM)	0.39 (≈ 0.787 µM)	0.78 (≈ 1.57 µM)	0.78 (≈ 1.57 µM)	6.25 (≈ 12.6 µM)	0.08 (≈ 0.161 µM)	< 0.1	–	–	–	–	–	–	–
Cn1nc(-c2ccc(C3=CCN(C(=N)N)CC3)cc2)cc1-c1ccc(C2=CCN(C(=N)N)CC2)cc1 [Example 54, 4,4′-(4,4′-(1-Methyl-1H-pyrazole-3,5-diyl)bis(4,1-phenylene)) bis(5,6-dihydropyridine-1(2H)-carboximidamide)]	1.56 (≈ 3.25 µM)	0.39 (≈ 0.811 µM)	0.39 (≈ 0.811 µM)	0.78 (≈ 1.62 µM)	3.13 (≈ 6.51 µM)	0.5 (≈ 1.04 µM)	< 0.1	–	–	–	–	–	–	–
Cn1c(-c2cc(F)c(C3=CCN(C(=N)N)CC3)cc2F)nnc1-c1cc(F)c(C2=CCN(C(=N)N)CC2)cc1F [Example 20, 4,4′-(4,4′-(4-Methyl-4H-1,2,4-triazole-3,5-diyl)bis(2,5-difluoro-4,1-phenylene))bis(5,6-dihydropyridine-1(2H)-carboximidamide)]	< 0.1	0.2 (≈ 0.361 µM)	0.78 (≈ 1.41 µM)	0.2 (≈ 0.361 µM)	12.5 (≈ 22.6 µM)	0.78 (≈ 1.41 µM)	< 0.1	–	–	–	–	–	–	–
N=C(N)N1CC=C(c2ccc(-c3nnc(-c4ccc(C5=CCN(C(=N)N)CC5)cc4)n3C3CCCC3)cc2)CC1 [Example 69, 4-(4-{5-[4-(1-carbamimidoyl-1,2,3,6-tetrahydropyridin-4-yl)phenyl]-4-cyclopentyl-4H-1,2,4-triazol-3-yl}phenyl)-1,2,3,6-tetrahydropyridine-1-carboximidamide trifluoroacetate]	–	–	–	–	–	–	–	0.1	0.2	0.39	< 0.1	0.39	0.39	< 0.1
Cc1cc(C2=CCN(C(=N)N)CC2)ccc1-n1cc(-c2ccc(C3=CCN(C(=N)N)CC3)cc2)nn1 [Example 34, 4-(4-(1-(4-(1-Carbamimidoyl-1,2,3,6-tetrahydropyridin-4-yl)-2-methylphenyl)-1H-1,2,3-triazol-4-yl)phenyl)-5,6-dihydropyridine-1(2-H)-carboximidamide]	0.2 (≈ 0.415 µM)	0.2 (≈ 0.415 µM)	0.39 (≈ 0.81 µM)	0.39 (≈ 0.81 µM)	25 (≈ 51.9 µM)	0.16 (≈ 0.332 µM)	< 0.1	–	–	–	–	–	–	–
N=C(N)N1CC=C(c2ccc(-c3nnc(-c4ccc(C5=CCN(C(=N)N)CC5)cc4F)n3CCCO)c(F)c2)CC1 [Example 73, 4-(4-{5-[4-(1-carbamimidoyl-1,2,3,6-tetrahydropyridin-4-yl)-2-fluorophenyl]-4-(3-hydroxypropyl)-4H-1,2,4-triazol-3-yl}-3-fluorophenyl)-1,2,3,6-tetrahydropyridine-1-carboximidamide hydrochloride]	–	–	–	–	–	–	–	0.1	0.2	1.56	0.05	3.13	0.2	0.1
N=C(N)N1CC=C(c2ccc(-c3nnc(-c4ccc(C5=CCN(C(=N)N)CC5)cc4F)n3C3CC3)c(F)c2)CC1 [Example 17, 4,4′-(4,4′-(4-Cyclopropyl-4H-1,2,4-triazole-3,5-diyl)bis(3-fluoro-4,1-phenylene))bis(5,6-dihydropyridine-1(2H)-carboximidamide)]	< 0.1	0.39 (≈ 0.717 µM)	0.39 (≈ 0.717 µM)	0.39 (≈ 0.717 µM)	0.78 (≈ 1.43 µM)	3.13 (≈ 5.76 µM)	< 0.1	–	–	–	–	–	–	–
Cn1c(-c2ccc(C3=CCN(C(=N)N)CC3)cc2)nnc1-c1ccc(C2=CCN(C(=N)N)CC2)cc1F [Example 78, 4-(4-{5-[4-(1-carbamimidoyl-1,2,3,6-tetrahydropyridin-4-yl)-2-fluorophenyl]-4-methyl-4H-1,2,4-triazol-3-yl}phenyl)-1,2,3,6-tetrahydropyridine-1-carboximidamide trifluoroacetate]	–	–	–	–	–	–	–	0.05	0.1	0.2	0.1	0.78	0.2	0.05
COCCn1c(-c2ccc(C3=CCN(C(=N)N)CC3)cc2F)nnc1-c1ccc(C2=CCN(C(=N)N)CC2)cc1F [Example 68, 4-(4-{5-[4-(1-carbamimidoyl-1,2,3,6-tetrahydropyridin-4-yl)-2-fluorophenyl]-4-(2-methoxyethyl)-4H-1,2,4-triazol-3-yl}-3-fluorophenyl)-1,2,3,6-tetrahydropyridine-1-carboximidamide trifluoroacetate]	–	–	–	–	–	–	–	0.1	< 0.1	0.39	< 0.1	0.78	0.2	< 0.1
